The source of these data is PubChem BioAssay AID179 (DTP/NCI, 2004).

Calls of active or inactive are those of the source.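 The calls were made as follows: active = compounds giving half or more protection of infected cells from virus-caused growth loss, again on retest; inactive = the rest.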

The subject of the assay is CEM cells HIV-1 protection, formazan growth assay. In words: NCI AIDS Antiviral Assay. The following applies: for IC50: measured here: growth of uninfected CEM cells. In a few lines: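 Protection of CEM cells against HIV-1 was scored from cell growth (soluble formazan) across five concentrations, with parallel uninfected cells. Lack of protection may reflect toxicity.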

In the case of `CCOC(=O)C(C)c1c(C(=O)c2ccc(C)nc2)c2ccccc2n1C` (stereo not given), the result was inactive.
A word on the EC50: it is the concentration giving half of the maximal effect. What is called IC50 is the concentration that gives 50% inhibition. Lower therefore signals higher potency. For the compound `C=C(C)CCC1CC=[N+]([O-])OC1C(C)(C)C` (stereo not given), the EC50 is more than 200 µM and the IC50 was 28.8 µM.
In the case of `O=C1CC2SC(COCc3ccccc3)(CCN2Cc2ccccc2)C1` (stereo not given), the outcome was inactive and the IC50 came out at 41.7 µM.
`O=C1c2sccc2-c2cccc3cccc1c23`: the EC50 was more than 63.1 µM and the IC50 was determined as 30.9 µM.
For `O=C(NCCCC1C2CCC(C2)C1CNC(=O)Nc1cccc(Cl)c1)Nc1cccc(Cl)c1` (stereo not given), the EC50 was more than 200 µM and the IC50 was determined as 3.63 µM.
The corresponding values for `NC(CCCCNc1ccn(C2OC(CO)C(O)C2O)c(=O)n1)C(=O)O` (stereo not given) are more than 100 µM and 5.5 µM.
In the case of `COc1ccc(-c2nnc3c4ccccc4sn23)cc1`, the EC50 was more than 25.7 µM and the IC50 came to 22.4 µM.
The corresponding values for `O=C(O)CCC(O)=C1S(=O)(=O)OCCOS1(=O)=O` are more than 4470 µM and 331 µM.
Taken in the same sequence, the figures for `CCC(C)C(=O)c1c(O)c(C/C=C(\C)CCC=C(C)C)c(O)c2c(C(O)CC)cc(=O)oc12` (stereo not given) were more than 200 µM and 1.55 µM.
The corresponding values for `NC1=NC(=O)C(CC(=O)Nc2ccc(Cl)cc2Cl)S1` (stereo not given) are more than 794 µM and 372 µM.
Regarding `O=[N+]([O-])c1ccc(S(=O)(=O)N/N=C/c2cccc3ccccc23)cc1`, the EC50 was more than 51.3 µM and the IC50 was more than 51.3 µM.
Consider `COc1cc(OC)cc(OCc2nc3cc(C(F)(F)F)ccc3nc2-c2ccccc2)c1`, for which the EC50 is more than 200 µM and the IC50 came out at 52.5 µM.
The corresponding values for `c1ccc(C2=NNc3cccc[n+]3C2)cc1` are more than 871 µM and 447 µM.
The corresponding values for `CN(C(=O)C12C3C4C1C1C2C3C41I)C(C)(C)C` (stereo not given) are more than 251 µM and more than 251 µM.
The corresponding values for `FC(F)C(F)(F)N1c2ccccc2Sc2ccccc21` are more than 200 µM and 72.4 µM.
As for `COc1ccc(NC(C)=O)cc1N1C(=O)/C(=C\c2cccc(Oc3ccccc3)c2)S(=O)(=O)C1c1ccccc1` (stereo not given), the EC50 is more than 200 µM and the IC50 was 33.1 µM.
Regarding `COC(=O)/C=C(/C)n1nc2ccccc2n1`, the EC50 is more than 200 µM and the 50% inhibitory concentration (IC50) was more than 200 µM.
Turning to `O=C(O)C[C@@H]1C(=O)OC2C3COC(=O)c4cc(O)c(O)c(O)c4-c4c(cc(O)c(O)c4O)C(=O)OC2C(OC(=O)c2cc(O)c(O)c4c2C1[C@H](O)C(=O)O4)C(OC(=O)c1cc(O)c(O)c(O)c1)O3` (stereo not given in full), the EC50 is 2.63 µM and the IC50 is 12.9 µM.
The corresponding values for `COc1ccccc1S(=O)(=O)Sc1ccccc1[N+](=O)[O-]` are more than 81.3 µM and 25.7 µM.
The corresponding values for `COC(=O)CCCC(=O)C(=Nc1c(Cl)cccc1Cl)NNc1ccc(Cl)cc1` are more than 200 µM and 35.5 µM.
Consider `O=C1c2ccccc2C(=O)c2c1ccc1c2[nH]c2ccccc21`, for which the result was inactive.
For `CC1COC(c2cn[nH]c2C(N)=O)C1O` (stereo not given), the EC50 was more than 200 µM and the IC50 was more than 200 µM.
`CC(C)/C(Cl)=N/OC(=O)Nc1ccc(OC(F)(F)F)cc1`: the EC50 was more than 200 µM and the concentration for half-maximal inhibition (IC50) turned out to be 10.5 µM.
The corresponding values for `CN1CCN(c2nc3c(c(=O)n(C)c(=O)n3C)n2C)CC1` are more than 759 µM and more than 759 µM.
Taken in the same sequence, the figures for `CC(C)[C@H]1CO[C@@H]2O[C@H](C)CC(=O)N21` were more than 1260 µM and more than 1260 µM.
`CN1CC=C(OP(=O)(NCc2ccccc2)N(CCCl)CCCl)CC1` (stereo not given): the EC50 is more than 200 µM and the half-inhibitory concentration (IC50) turned out to be 135 µM.
`CCOC(=O)C1CSC(=N)N1C(C)=O` (stereo not given): the EC50 was 115 µM and the IC50 was 123 µM.
`CCCCSC1CCSc2c1ccc1ccccc21` (stereo not given): the outcome was inactive.
Take `COC(=O)C1(NC(=O)C(Cc2ccccc2)N(C(=O)OC(C)(C)C)C(=O)OC(C)(C)C)CCCC1` (stereo not given): the EC50 is more than 200 µM and the concentration for half-maximal inhibition (IC50) was 110 µM.
